Test results taken from patent publication US20180289764A1, “TRADITIONAL CHINESE MEDICINE COMPOSITION FOR TREATING PSORIASIS” (Guangdong Provincial Hospital of Chinese Medicine, priority 2015, published 2018).

Experiments:
[1] = test system: propranolol-induced guinea pig psoriasis model; assay: Propranolol-induced guinea pig psoriasis model; type: in vivo, Hartley guinea pigs
Method: The preparation of 5% propranolol hydrochloride emulsion: 5 g propranolol hydrochloride was dissolved with 50% ethanol, 5 mL 1,2-propanediol was added as a composite accelerator, and 5 g PVPK30 was added as a film-forming material. 50% ethanol was added to 100 mL, and preparing into 5% propranolol hydrochloride emulsion until used
80 Hartley guinea pigs weighing 200-250 g with half males and half females were selected in this study, the Hartley guinea pigs were qualified in an adaptive breeding observation. 10 guinea pigs (half male and half female) were used as a normal control group based on a random allocation, and no drugs were administrated to them; the other 70 guinea pigs (half males and half females) were treated with 5% propranolol hydrochloride emulsion (about 200 μL) evenly in the skins behind both of ears, 2 times a day, continuing treating 4 weeks, for modeling. 4 weeks later, 10 guinea pigs were sacrificed to examine whether the model was successful (with the thickness of the ear skin as an index). The remaining 60 guinea pigs were then layered with Excel according to weights, 6 guinea pigs every layer, and the guinea pigs in each layer were randomly assigned to each group, 10 guinea pigs every group, and the guinea pigs were divided into 6 groups in total, that is the model control group, the group of the present invention, the group of patent 201210183904.3, the group of the patent of 200910091066.5, the group of methotrexate tablet and the group of yujin yinxie tablet. The guinea pigs in each group were given by intragastric administration at a volume of 20 mL·kg-1·d-1 in the morning, once every day for 10 days. The normal control group and the model control group were given equal volume of pure water. The guinea pigs were sacrificed one hour after the last administration, and the skin behind both of ears was took off and fixed with 10% formaldehyde solution, embedded in paraffin, and stained with HE, observed under an optical microscope. 10 high-power fields were counted, the thickness of the epidermis was measured with a micrometer, and averaged; the auricular pathology of guinea pigs was used to perform a histological examination, observe vasodilation situations, which were denoted as 0, 0.5, 1 and 2 points according to normal, light, medium and heavy degrees.

psoriasis = settings: systemic treatment of psoriasis, background table; cited from earlier work
[2] = test system: mouse tail scaled epidermis; assay: Effects on the mouse tail scaled epidermis; type: in vivo, KM mice
Description: 60 KM mice weighing 18-25 g with half males and half females were selected in this study, the mice were qualified in an adaptive breeding observation. The mice were layered with Excel according to weights, 6 mice every layer, and the mice in each layer were randomly assigned to each group, 10 mice every group, and the mice were divided into 6 groups in total, that is normal control group, the group of the present invention, the group of patent 200910091066.5, the group of the patent of 201210183904.3, the group of methotrexate tablet and the group of yujin yinxie tablet. The mice in each group were given by intragastric administration at a volume of 20 mL·kg-1·d-1 in the morning, once every day for 14 days. The normal control group was given equal volume of pure water. The mice were sacrificed one hour after the last administration, and a long strip of the dorsal skin of the root of the mouse tail (about 1.0 cm×0.2 em) was took off and fixed with 10% formaldehyde solution, embedded in paraffin, and stained with HE. The tail scales of each mouse were observed under an optical microscope. Those where the granulosa layers arranged in rows are in the epidermis of scales between the two follicular orifice, are known as the scales with granulosa layer. […]

| SMILES | Blood vessel dilatation ([1]; 0, 0.5, 1, 2 points for normal, light, medium, heavy, intragastric 10 days, x ± s, n = 10) | Effect on epidermis thickness of guinea pig ears and hemangiectasis compared with model control ([1]; P<0.01) | Histopathological examination ([1]; guinea pig ear skin, HE stain) | Epidermal thickness ([1]; guinea pig ear skin, intragastric once daily for 10 days, x ± s, n = 10) | Efficacy rate (the efficient) (psoriasis) | Formation of the epidermis granulosa layer of the mouse tail scale compared with normal control group ([2]; intragastric 14 days, P<0.05 or P<0.01) | The number of scales in the granulosa layer ([2]; per 100 scales, expressed as a percentage, intragastric once daily for 14 days, x ± s, n = 10) |
| --- | --- | --- | --- | --- | --- | --- | --- |
| CN(Cc1cnc2nc(N)nc(N)c2n1)c1ccc(C(=O)N[C@@H](CCC(=O)O)C(=O)O)cc1 [methotrexate tablet, methotrexate] | 0.42 ± 0.12 score | significantly reduce the thickness of the epidermis of guinea pig ears and reduce hemangiectasis | hyperkeratosis and parakeratosis was obviously alleviated | 96.61 ± 4.78 μm | 20-40% | significantly promote the formation of the epidermis granulosa layer of the mouse tail scale | 43.65 ± 11.18 |
| CC1=C(/C=C/C(C)=C/C=C/C(C)=C/CO)C(C)(C)CCC1 [Vitamin A, vitamin A (retinol)] | – | – | – | – | 25% | – | – |
